In ChEMBL document CHEMBL1151237, “Chamuvarinin, an acetogenin bearing a tetrahydropyran ring from the roots of Uvaria chamae” (J Nat Prod, 2004):

Assay: Cytotoxicity against human KB3-1 cells by colorimetric assay
Type: functional, cell-based
Settings: KB 3-1

Question: Which IC50 does the source give for CCCCCCC1CCCC(C2CCC([C@H]3CC[C@H]([C@H](O)CCCCCCCCCCCCC4=C[C@H](C)OC4=O)O3)O2)O1 (some centres not stated) [CHAMUVARININ] here?
Answer: The IC50 was 0.8 nM.

Question: For CCCCCC[C@H](O)CCC[C@H](O)[C@H]1CC[C@H]([C@H]2CC[C@H]([C@H](O)CCCCCCCCCCCCC3=C[C@H](C)OC3=O)O2)O1 [SQUAMOCIN], which IC50 is on record?
Answer: Its IC50 is 0.003 nM.
